According to ChEMBL document CHEMBL1201862, “PubChem BioAssay data set” (2004):
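How tested: cells in 96-well plates exposed to compound for 48 hours at five concentrations. GI50 is the concentration that inhibits growth by half.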 The source made the active and inactive calls. No stated cut-off is given here; in the data, active = GI50 up to about 1.1 µM and inactive = higher.

Assays:
Experiment in all cases: growth of human tumour cells (NCI), 48 h
RXF 393 = tested on: RXF 393
LOX IMVI = tested on: LOX IMVI
NCI-H460 = tested on: NCI-H460
T47D = tested on: T47D
SK-MEL-2 = tested on: SK-MEL-2
HCC 2998 = tested on: HCC 2998
DU-145 = tested on: DU-145
NCI-H226 = tested on: NCI-H226
NCI/ADR-RES = tested on: NCI/ADR-RES
MOLT-4 = tested on: MOLT-4
M14 = tested on: M14
SN12C = tested on: SN12C
CAKI-1 = tested on: CAKI-1
SNB-75 = tested on: SNB-75
SF-268 = tested on: SF-268
HT-29 = tested on: HT-29
COLO 205 = tested on: COLO 205
PC-3 = tested on: PC-3
HOP-92 = tested on: HOP-92
OVCAR-8 = tested on: OVCAR-8
OVCAR-4 = tested on: OVCAR-4
UO-31 = tested on: UO-31
KM12 = tested on: KM12
IGROV-1 = tested on: IGROV-1
SR = tested on: SR
MDA-N = tested on: MDA-N
MDA-MB-435 = tested on: MDA-MB-435
EKVX = tested on: EKVX
HCT-116 = tested on: HCT-116
OVCAR-5 = tested on: OVCAR-5
NCI-H23 = tested on: NCI-H23
SK-MEL-28 = tested on: SK-MEL-28
Malme-3M = tested on: Malme-3M
RPMI-8226 = tested on: RPMI-8226
CCRF-CEM = tested on: CCRF-CEM
NCI-H522 = tested on: NCI-H522
SW-620 = tested on: SW-620
SF-539 = tested on: SF-539
HCT-15 = tested on: HCT-15
786-0 = tested on: 786-0
SK-MEL-5 = tested on: SK-MEL-5
HL-60 = tested on: HL-60
BT-549 = tested on: BT-549
K562 = tested on: K562
UACC-257 = tested on: UACC-257

Measured: GI50

Clc1ccc(/N=C/c2cc3cc(Br)ccc3nc2Cl)cc1
14.2 µM: HCT-15
inactive: RXF 393 > 50 µM | LOX IMVI 6.18 µM | NCI-H460 18.1 µM | T47D > 50 µM | SK-MEL-2 10.8 µM | HCC 2998 32.3 µM | DU-145 > 50 µM | NCI-H226 > 50 µM | NCI/ADR-RES 45.1 µM | MOLT-4 13.5 µM | M14 14.4 µM | SN12C > 50 µM | CAKI-1 1.95 µM | SNB-75 > 50 µM | SF-268 17 µM | HT-29 16 µM | COLO 205 > 50 µM | PC-3 15.7 µM | HOP-92 > 50 µM | OVCAR-8 28.1 µM | OVCAR-4 5.12 µM | UO-31 36.8 µM | KM12 20 µM | IGROV-1 17.8 µM | SR 10.1 µM | MDA-N 11.2 µM | MDA-MB-435 8.71 µM | EKVX 29.6 µM | HCT-116 12 µM | OVCAR-5 > 50 µM | NCI-H23 > 50 µM | SK-MEL-28 46.5 µM | Malme-3M > 50 µM | RPMI-8226 13.2 µM | CCRF-CEM 9.08 µM | NCI-H522 15.1 µM | SW-620 14.2 µM | SF-539 21.4 µM | 786-0 > 50 µM | SK-MEL-5 6.59 µM | HL-60 9.82 µM | BT-549 > 50 µM | K562 4.34 µM | UACC-257 34.1 µM
